Measurements published in PubChem BioAssay AID743402 (Broad Institute, 2014).

Tested on: FRT CFTR-F508del YFP iodide quenching, 24 h
Assay: CFTR-F508del correctors, dose response, FRT cells, YFP quenching, cherry-pick (AID 743402);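 further: compounds act as correctors raising surface CFTR-F508del before acute activation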
[1] = channel opened with forskolin and a potentiator

SMILES | AC35 [1] [µM] | AC35 [µM]
CC(=O)Oc1ccc(N2C(=O)c3cccc4c([N+](=O)[O-])ccc(c34)C2=O)cc1 | 8.38 | 
c1ccc2c(c1)C1=NCCN1c1ccccc1-2 | 8.91 | 
CC(=O)OCCn1c2nc(=O)[nH]c(=O)c-2nc2cc(C)c(C)cc21 | 1.37 | 
C[C@@H]1CN([C@@H](C)CO)C(=O)Cc2cc(N(C)C)ccc2O[C@@H]1CN(C)Cc1ccc(C(=O)Nc2ccccc2N)cc1 | 19.7 | 
COc1cccc2c1C(=O)C=C(C)C2=O | 6.68 | 
Cc1ccnc(N2C(=O)c3cccc4c([N+](=O)[O-])ccc(c34)C2=O)c1 | 7.01 | 
N#C/C(=C/c1ccc(N2CCCCC2)o1)C(=O)Nc1ccc2ccccc2c1 | 2.37 | 
O=c1c2ccccc2sc2c(CO)ccc(NCCN3CCCCC3)c12 | 21.8 | 
COc1cccc(S(=O)(=O)N2C[C@@H]3N[C@H](C2)C3c2ccc(-c3ccccc3F)cc2)c1 (stereo partly specified) | 24.5 | 
O=S(=O)(c1ccc(F)cc1)N1CC[C@@H]2[C@@H](CO)Nc3ccc(-c4ccc(F)cc4)cc3[C@@H]21 | 17.7 | 
COC(=O)c1cc2c(=O)c3ccccc3oc2nc1/C=C/N(C)C | 0.544 | 
CCN(CC)CCn1c2ccccc2c2nc3ccccc3nc21 | 17.3 | 
CC(=O)Nc1sc2c(c1-c1nc3ccccc3s1)CN(C(C)C)CC2 | 10.7 | 
COc1cccc2c1C(=O)c1c(O)c3c(c(O)c1C2=O)CC(O)(C(C)=O)CC3OC1CC(N(C)C)C(O)C(C)O1 (stereo unspecified) | 1.03 | 
CC(C)N1CCc2c(sc(NC(=O)c3ccc([N+](=O)[O-])o3)c2C(N)=O)C1 | 6.42 | 
CCOC(=O)/C(=C/C=C1\Sc2cc(C)c(C)cc2N1CC)C(C)=O | 3.13 | 
Clc1ccc(Nc2ccc3ccccc3n2)cc1 | 4.5 | 
CCCC#Cc1ccc([C@H]2[C@H](CO)N3C(=O)CN(C(=O)Nc4cc(F)ccc4F)C[C@@H]23)cc1 | 23.3 | 
Cc1ccc(S(=O)(=O)Nc2ccc3c(c2)CC(=O)N([C@@H](C)CO)C[C@@H](C)[C@@H](CN(C)Cc2ccc(Cl)c(Cl)c2)O3)cc1 | 22.6 | 

SMILES | AC35 [1] [µM] | AC35 [µM]
CN1c2ccc(-c3ccc(F)cc3)cc2[C@H]2[C@H](CCN2S(=O)(=O)c2ccc(F)cc2)[C@H]1CO | 21.9 | 
Nc1ccc2ccc3cccc[n+]3c2c1 |  | 7.53
Nc1c2ccccc2nc2ccccc12 | 12.9 | 
COc1ccc(S(=O)(=O)Nc2ccc3c(c2)C(=O)N([C@@H](C)CO)C[C@@H](C)[C@H](CN(C)Cc2ccc(Oc4ccccc4)cc2)O3)cc1 | 1.52 | 
CCCC#Cc1ccc([C@H]2[C@@H](CO)N3CCCCN(S(=O)(=O)c4ccccc4C)C[C@H]23)cc1 | 19 | 
COc1ccc(OC)c(-c2nnc3n2N=C(c2ccc(OC)c(OC)c2)CS3)c1 | 5.34 | 
COC(C(=O)C(O)C(C)O)C1Cc2cc3cc(OC4CC(OC5CC(O)C(O)C(C)O5)C(O)C(C)O4)c(C)c(O)c3c(O)c2C(=O)C1OC1CC(OC2CC(OC3CC(O)C(OC)C(C)O3)C(O)C(C)O2)C(O)C(C)O1 (stereo unspecified) | 0.583 | 
CN1c2ccc(-c3ccc(F)cc3)cc2[C@H]2[C@H](CCN2S(=O)(=O)c2cccc(F)c2)[C@H]1CO | 15.5 | 
CNc1c2cccc(C)c2nc2c(C(=O)NCCN(C)C)cccc12 | 10.5 | 
O=C(C1CC1)N1CC(=O)N2[C@H](CO)[C@@H](c3ccc(-c4ccccc4F)cc3)[C@@H]2C1 | 19.7 | 
CC(=NNC(=O)c1ccncc1)c1ccc2ccccc2c1O | 4.3 | 
CCOC1=C/C(=C/c2c(N)n3nc(S(=O)(=O)CC)sc3nc2=O)C=CC1=O | 9.92 | 
CCC(=O)N1CC2(CCN(Cc3ccc(Cl)cc3)CC2)c2c([nH]c3cc(OC)ccc23)[C@H]1CO | 22.2 | 
Cc1cc(Nc2ccc(Br)cc2)nc2ccccc12 | 8.45 | 
CN1/C(=C\C=C2/SC(=S)NC2=O)C(C)(C)c2ccccc21 | 2.6 | 
C[C@H]1CCC/C=C/[C@@H]2C[C@H](O)C[C@H]2[C@H](O)/C=C/C(=O)O1 |  | 15.2
N#Cc1ccc(-c2ccc(C3[C@@H]4CN(C(=O)C5CCC5)C[C@H]3N4)cc2)cc1 (stereo partly specified) | 22.1 | 
C[C@H]1CN([C@@H](C)CO)S(=O)(=O)c2ccc(/C=C/c3ccccc3)cc2O[C@H]1CN(C)Cc1ccccc1 | 21.9 | 
Cn1c(=O)c(NC2CCCCC2)c2c3c(cccc31)C(=O)c1ccccc1-2 | 1.05 | 

SMILES | AC35 [1] [µM] | AC35 [µM]
Cc1cc(C)c(/C=C2\C(=O)Nc3ccccc32)[nH]1 | 3.24 | 
COc1ccc(-c2cnc3c(NC=O)cc(-c4ccccc4)cn23)cc1OC | 10.4 | 
COc1cccc2c1C(=O)c1c(O)c3c(c(O)c1C2=O)C[C@](O)(C(C)=O)C[C@H]3O[C@@H]1C[C@@H](N)[C@@H](O)[C@@H](C)O1 | 1.65 | 
COc1cc(/C=C2/SC(=S)N(Cc3ccccc3)C2=O)cc(Cl)c1O | 3.7 | 
CCN1/C(=C\c2ccc3cc(C)ccc3[n+]2CC)Sc2cc(C)c(C)cc21 | 1.02 | 
CC(C)n1cc(/C=C/c2cc[n+](C)cc2)c2ccccc21 | 0.752 | 
O=C1c2cccc3c([N+](=O)[O-])ccc(c23)C(=O)N1Cc1cccnc1 | 9.18 | 
CC1(C)OC(c2ccccc2)=C/C(=C/C=C2C(=O)NC(=S)NC2=O)O1 |  | 3.34
COc1c(C=O)c2c(c(OC)c1OC)-c1ccc(OC)c(=O)cc1C(NC(C)=O)CC2 (stereo unspecified) | 20.9 | 
CC[n+]1c(-c2ccccc2)c2cc(N)ccc2c2ccc(N)cc21 |  | 13.3
CCN(CC)CCCNc1ccc2ncn3c4ccc(O)cc4c(=O)c1c23 | 4.01 | 
Nc1ccc(-c2c3ccc(=O)cc-3oc3cc(O)ccc23)cc1C(=O)O | 1.61 | 
COc1ccccc1N1CCN(C(=O)c2ccc(-c3ccc(Cl)cc3)o2)CC1 | 7.37 | 
c1ccc2c(NCCCN3CCOCC3)c3ccccc3nc2c1 | 16.6 | 
CN(C)/C=C1\C=C2C(=O)c3ccccc3N2C1=O | 2.19 | 
O=c1ccc2c(-c3ccccc3)c3ccc(O)cc3oc-2c1 | 1.11 | 
COc1ccc(OC)c(Nc2nc(-c3sc(NC(=O)C(C)(C)C)nc3C)cs2)c1 | 0.908 | 
CC1(C)OC(c2ccccc2)=C/C(=C/C=C2C(=O)NC(=O)NC2=O)O1 |  | 13.4
